This note sets out measurements from patent US20260116902A1, “NOVEL COMPOUND AS FUNCTIONAL ANTAGONIST FOR S1PR1 AND S1PR4” (NEXTGEN BIOSCIENCE CO., LTD., priority 2024, published 2026).

For the test, the target named is T1, S1PR1 (Homo sapiens, UniProt P21453).
T1 construct: host or cells: CHO-K1 (PathHunter eXpress β-Arrestin GPCR cells)
The test is described as follows: β-arrestin recruitment assay (PathHunter CHO-K1), S1PR1. The class given is cell-based. To be noted: agonism. How it is done: To this end, each of the cell lines in which S1PR1, S1PR2, S1PR3, and S1PR4 are overexpressed (PathHunter® CHO-K1 eXpress β-Arrestin GPCR cells; DiscoverX, Fremont, USA) was seeded in a 384-well plate at 5000 cells/well and cultured using an AssayComplete™ Cell Culture Kit-107 (DiscoverX, Fremont, USA). […] A PathHunter detection reagent cocktail (DiscoverX, Fremont, USA) was added in accordance with the manufacturer's instructions and incubated for 1 hour, followed by measuring a chemiluminescent signal (luminescence reader, 0.1 to 1 second/well).

T1 sequence (P21453 whole entry): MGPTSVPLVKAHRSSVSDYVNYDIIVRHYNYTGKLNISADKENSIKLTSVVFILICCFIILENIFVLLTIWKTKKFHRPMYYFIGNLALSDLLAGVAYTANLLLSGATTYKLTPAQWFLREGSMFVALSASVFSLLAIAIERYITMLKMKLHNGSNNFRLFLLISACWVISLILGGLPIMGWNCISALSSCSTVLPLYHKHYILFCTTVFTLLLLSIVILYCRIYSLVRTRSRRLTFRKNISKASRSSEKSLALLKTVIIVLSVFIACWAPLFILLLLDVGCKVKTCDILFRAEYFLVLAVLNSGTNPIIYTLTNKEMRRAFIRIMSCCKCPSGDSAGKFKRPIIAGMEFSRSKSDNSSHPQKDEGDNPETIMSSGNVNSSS

In general, EC50 refers to the concentration giving half of the maximal effect. Read a high EC50 as lower potency in that assay. On to `CCCCCCCCCCCCC/C=C/[C@@H](O)[C@@H](N)COP(=O)(O)O` [Compound S1P, sphingosine-1-phosphate], for which the half-maximal effective concentration (EC50) was 16.3 nM.
